Measurements published in patent publication US10807992B2, “Single enantiomer antiparasitic compounds” (priority 2017, dated 2020).
Where two headings read alike, the source gives them in different places.

Experiment: Plasma PK from oral tick and flea efficacy studies of the C1 racemate
Type: in vivo, Mongrel dogs
Settings: for Cmax / AUC(0-t) / AUC(0-inf) / half-life / CL/F / Tmax: mongrel, dog, po; for Cmax / AUC(0-t) / AUC(0-inf) / half-life / CL/F / Tmax / tlast: plasma; for AUC(0-t): read-out: NCA AUC0-last
From the text: However, the S- enantiomer plasma PK curves and calculated PK parameters conducted in beagle dogs differed from oral efficacy studies conducted on the racemate dosed in mongrels.
Pharmacokinetic results from the compound C1 (S) enantiomer PK study differed from racemic efficacy studies. Average plasma pharmacokinetic parameters from the compound C1 (S) enantiomer PK study described in this document are compared to those from oral efficacy studies of the racemate in Table 6.

[1] = 10 mg/kg, Flea Efficacy study, oral 10 mg/kg
[2] = 10 mg/kg, Tick Efficacy study, oral 10 mg/kg
[3] = 20 mg/kg, Flea Efficacy study, oral 20 mg/kg
[4] = 20 mg/kg, Tick Efficacy study, oral 20 mg/kg

With `O=C(CC(F)(F)F)N1CC2(C1)OCc1cc(C3=NSC(c4cc(Cl)c(F)c(Cl)c4)(C(F)(F)F)C3)ccc12` (racemic) [C1 racemate, 1-[6-[5-(3,5-dichloro-4-fluoro-phenyl)-5-(trifluoromethyl)-4H-isothiazol-3-yl]spiro[1H-isobenzofuran-3,3′-azetidine]-1′-yl]-3,3,3-trifluoro-propan-1-one] the “absorption and elimination in dogs” value (dogs, oral) was “well-absorbed compound with an extended elimination half-life in dogs”, the Cmax (10 mg/kg, Mongrel, Flea Efficacy study, oral 10 mg/kg, read-out: Cmax) was 3470 ng/mL and the AUC(0-t) (10 mg/kg, Mongrel, Flea Efficacy study, oral 10 mg/kg) was 266 µg·h/mL. For the same molecule, the AUC(0-inf) (10 mg/kg, Mongrel, Flea Efficacy study, oral 10 mg/kg, read-out: NCA AUC0-∞) was 361 µg·h/mL, the half-life (10 mg/kg, Mongrel, Flea Efficacy study, oral 10 mg/kg, read-out: t1/2 (converted)) was 23.8 days and the Cmax (10 mg/kg, Mongrel, Tick Efficacy study, oral 10 mg/kg, read-out: Cmax) was 3780 ng/mL. The AUC(0-t) (10 mg/kg, Mongrel, Tick Efficacy study, oral 10 mg/kg) was 344 µg·h/mL, the AUC(0-inf) (10 mg/kg, Mongrel, Tick Efficacy study, oral 10 mg/kg, read-out: NCA AUC0-∞) was 395 µg·h/mL and the half-life (10 mg/kg, Mongrel, Tick Efficacy study, oral 10 mg/kg, read-out: t1/2 (converted)) was 16.4 days. For the same molecule, the AUC(0-inf) (10 mg/kg, range over racemate efficacy studies, at 10 mg/kg, read-out: plasma area under the curve extrapolated to infinity (AUC0-∞)) was 361 to 395 µg·h/mL, the Cmax (10 mg/kg, range over racemate efficacy studies, dosed at 10 mg/kg, read-out: plasma Cmax) was 3470 to 3780 ng/mL and the CL/F [1] was 0.643 mL/min/kg. It also gave a Tmax [1] of 1 h, a CL/F [2] of 0.502 mL/min/kg and a Tmax [2] of 3 h. For the same molecule, the Cmax (20 mg/kg, Mongrel, Flea Efficacy study, oral 20 mg/kg, read-out: Cmax) was 4740 ng/mL, the AUC(0-t) (20 mg/kg, Mongrel, Flea Efficacy study, oral 20 mg/kg) was 463 µg·h/mL and the AUC(0-inf) (20 mg/kg, Mongrel, Flea Efficacy study, oral 20 mg/kg, read-out: NCA AUC0-∞) was 525 µg·h/mL. It also gave a half-life (20 mg/kg, Mongrel, Flea Efficacy study, oral 20 mg/kg, read-out: t1/2 (converted)) of 14.9 days, a Cmax (20 mg/kg, Mongrel, Tick Efficacy study, oral 20 mg/kg, read-out: Cmax) of 6240 ng/mL and an AUC(0-t) (20 mg/kg, Mongrel, Tick Efficacy study, oral 20 mg/kg) of 494 µg·h/mL. The AUC(0-inf) (20 mg/kg, Mongrel, Tick Efficacy study, oral 20 mg/kg, read-out: NCA AUC0-∞) was 674 µg·h/mL, the half-life (20 mg/kg, Mongrel, Tick Efficacy study, oral 20 mg/kg, read-out: t1/2 (converted)) was 23.8 days and the CL/F [3] was 0.737 mL/min/kg. For the same molecule, the Tmax [3] was 1 h, the CL/F [4] was 0.693 mL/min/kg and the Tmax [4] was 2 h. The half-life (range over racemate efficacy studies, read-out: half-life) was 14.9 to 23.8 days, the CL/F (range over racemate efficacy studies) was 0.5 to 0.733 mL/min/kg and the tlast (Mongrel, Flea Efficacy study, oral 10 mg/kg) was 1032 h. For the same molecule, the tlast (Mongrel, Flea Efficacy study, oral 20 mg/kg) was 1032 h, the tlast (Mongrel, Tick Efficacy study, oral 10 mg/kg) was 1056 h and the tlast (Mongrel, Tick Efficacy study, oral 20 mg/kg) was 1056 h.
